# Article PMC9462760, “A potent and selective inhibitor for the modulation of MAGL activity in the neurovasculature” (PLoS ONE, 2022)
# Tests used:
# [1] = target: T1, Monoacylglycerol lipase (MAGL) (Mus musculus, UniProt O35678); test: competitive ABPP in mouse brain lysate at […] ([…] decrease of MAGL signal); type: cell-based
# T1 construct: gene Mgll
# T1 sequence (O35678 1-303): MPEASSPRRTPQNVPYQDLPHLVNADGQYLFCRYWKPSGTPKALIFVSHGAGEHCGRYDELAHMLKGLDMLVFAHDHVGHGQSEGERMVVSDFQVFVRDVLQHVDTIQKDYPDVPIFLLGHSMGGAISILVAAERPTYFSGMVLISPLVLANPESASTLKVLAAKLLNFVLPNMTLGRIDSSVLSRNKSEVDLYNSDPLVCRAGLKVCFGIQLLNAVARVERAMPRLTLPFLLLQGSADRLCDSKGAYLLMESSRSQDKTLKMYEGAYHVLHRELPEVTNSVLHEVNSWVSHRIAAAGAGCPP
# [2] = target: T2, Monoacylglycerol lipase (MAGL) (Homo sapiens, UniProt Q99685); test: competitive ABPP in human brain lysate at […] ([…] decrease of MAGL signal); type: cell-based
# T2 construct: gene MGLL
# T2 sequence (Q99685 1-303): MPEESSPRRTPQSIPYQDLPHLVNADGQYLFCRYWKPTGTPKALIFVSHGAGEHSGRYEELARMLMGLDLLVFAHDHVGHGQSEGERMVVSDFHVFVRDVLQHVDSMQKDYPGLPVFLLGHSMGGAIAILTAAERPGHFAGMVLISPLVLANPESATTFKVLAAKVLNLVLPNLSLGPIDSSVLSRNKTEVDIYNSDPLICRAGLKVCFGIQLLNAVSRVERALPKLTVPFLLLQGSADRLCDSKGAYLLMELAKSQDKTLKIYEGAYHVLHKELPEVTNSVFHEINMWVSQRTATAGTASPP
smiles,measurement,setting,value
O=C(Oc1ccc([N+](=O)[O-])cc1)N1CCC(C(O)(c2ccc3c(c2)OCO3)c2ccc3c(c2)OCO3)CC1 [JZL 184],inhibition at 10 µM,[1],78%
same,inhibition at 10 µM,[2],83%
